Values joined by “and” are separate entries in the source; they are usually repeats but may differ in a detail not shown here. Identical values can stand only once.

Consider 4 compounds from US4537895A, “Isoquinoline derivatives” (EGYT Gyogyszervegyeszeti Gyar, priority 1982, dated 1985).

The subject of data set [1] is catalepsy induced by Haloperidol / tetrabenazine. Kind of data set: Comparison of anti-haloperidol (Test 2) and anti-tetrabenazine (Test 4) activity. Conditions: for Quotient of the ED values of Columns 2 and 4: ED Test 2 (haloperidol) : ED Test 4 (tetrabenazine). Format: in vivo, mice. Here is the method:
(§1) 2. S.c. dose which inhibits the catalepsy induced by a 13 umole/kg dose of Haloperidol, in 50% of the mice.
(§2) 4. S.c. dose which inhibits the catalepsy induced by a 110 umole/kg dose of tetrabenazine, in 50% of the mice.
(§3) The acute toxicity data are determined in mice. Tests 2-6 are also carried out in mice. The doses are expressed in micromole/kg. The therapeutical index (TI) is the LD/ED quotient.
On comparing the dopaminerg type anti-haloperidol test and the anti-tetrabenazine activity being characteristic of the antidepressive effect the following can be stated:
The quotient of the ED values of Columns 2 and 4 is the highest for Compound I (55:13=4.2). […] The said quotient is high in the case of Nomifensine (1.6), Compound D (1.8), Compound E (2.7) and Compound F (1.7).

Another data set relates to spontaneous motility. The data set is described as follows: Test 3: spontaneous motility. To be noted: for TI (Test 3), LD/ED quotient: LD50 / ED of Test 3; for minimal effective dose: Mus musculus, ip, read-out: ED, lowest i.p. dose which still decreases the spontaneous motility (Test 3, -). Format: in vivo. The method, then:
3. Lowest i.p. dose which still increases or decreases the spontaneous motility of the mice.
as §3
In Test 3 "+=motility increase" and "-=motility decrease."

Data set [2] can be described thus: Overall comparison with Nomifensine in the pharmacological tests. Format: in vivo. Conditions: all tests. Here is the method:
The pharmacological activity of the compounds of the present invention is determined by the following tests:
as §3
(§4) Tests 7-10 are carried out in cats and rats, the doses are expressed in micromole/kg.

For data set [3], the system named is blood pressure and nictitating membrane. The data set is described as follows: Test 7: blood pressure and nictitating membrane effect. Format: in vivo. Conditions: Felis catus, iv, cats; ">" = inactive in the given dose; read-out: Lowest i.v. dose which still increases the blood pressure and nictitating membrane effect (Test 7). Here is the method:
as §4
(§5) Tests 2, 8, 9 and 10 are suitable for the evaluation of the dopaminerg stimulating effect of the test compounds (potential anti-parkinson agent). Tests 4, 5, 6 and 7 give information about the catecholamine-uptake inhibiting effect (potential antidepressive activity).

The test system of another data set is stereotypy. Kind of data set: Test 8: induction of stereotypy. Format: in vivo. To be noted: Rattus norvegicus, sc, rats; ">" = inactive in the given dose; read-out: Lowest s.c. dose which still induces stereotypy (Test 8). The method, then: 8. The lowest s.c. dose which still induces stereotypy, in rats.
as §4, §5

Data set [4] has as its system catalepsy induced by tetrabenazine. The data set is described as follows: Test 4: inhibition of tetrabenazine-induced catalepsy. Conditions: for TI (Test 4), LD/ED quotient: LD50 / ED of Test 4; for ED50: Mus musculus, sc, read-out: ED, s.c. dose which inhibits the catalepsy induced by tetrabenazine in 50% of the mice (Test 4). Format: in vivo. Here is the method:
as §2, §3, §5

For data set [5], the system named is catalepsy induced by Haloperidol. The data set is described as follows: Test 2: inhibition of haloperidol-induced catalepsy. Format: in vivo. Conditions: for TI (Test 2), LD/ED quotient: LD50 / ED of Test 2; for ED50: Mus musculus, sc, read-out: ED, s.c. dose which inhibits the catalepsy induced by Haloperidol in 50% of the mice (Test 2). Here is the method:
as §1, §3, §5

The nature of data set [6]: Acute toxicity, s.c., LD50. To be noted: mouse, in vivo, sc, mice, 96 hour observation. On the set-up: species or system mice. Here is the method: as §3
The subject of data set [7] is ptosis induced by tetrabenazine. The data set is described as follows: Test 5: inhibition of tetrabenazine-induced ptosis. Format: in vivo. Conditions: for TI (Test 5), LD/ED quotient: LD50 / ED of Test 5; for ED50: Mus musculus, sc, read-out: ED, s.c. dose which inhibits the ptosis induced by tetrabenazine in 50% of the mice (Test 5). The method, then: 5. S.c. dose which inhibits the ptosis induced by a dose of 79 umole/kg of tetrabenazine, in 50% of the mice.
as §3, §5

The test system of data set [8] is decrease of the rectal temperature caused by reserpine. Kind of data set: Test 6: reserpine-induced decrease of rectal temperature. Conditions: for TI (Test 6), LD/ED quotient: LD50 / ED of Test 6; for minimal effective dose: Mus musculus, sc, read-out: ED, lowest s.c. dose which still hinders the decrease of the rectal temperature caused by reserpine (Test 6). Format: in vivo. The method, then:
6. The lowest s.c. dose which still hinders the decrease of the rectal temperature caused by the administration of a 1,6 umole/kg dose of reserpine.
as §3, §5

In a further data set the test system is prolactine level. Kind of data set: Test 10: decrease of prolactine level in ovariectomised rats. Conditions: Rattus norvegicus, 96 h, after 4 days treatment with oestradiol 0.073 umole/kg, read-out: Dose which induces a significant decrease of the prolactine level (Test 10). Format: in vivo. The method, then:
10. The dose which induces a significant decrease of the prolactine level after 4 days treatment with a dose of 0.073 umole/kg of oeastradiol, on three weeks earlier ovariectomised rats.
as §4, §5

For the compound `CCNCC(=O)Nc1cccc2c1CN(C)CC2c1ccc(Cl)cc1` (centres unmarked) [Compound C, 8-ethylamino-acetyl-amino-4-p-chloro-phenyl-2-methyl-1,2,3,4-tetrahydroisoquinoline-maleate], the “Quotient of the ED values of Columns 2 and 4” value (from here on “Quotient … of Columns 2 and 4”) in data set [1] is listed as 1,0. Also, in the data set on spontaneous motility, the “TI (Test 3), LD/ED quotient” value amounted to 16 and the minimal effective dose worked out at 42 µmol/kg. Besides, the “Activity compared with Nomifensine (in words)” value in data set [2] was “surpasses the activity of Nomifensine in three tests”. The minimal effective dose in [3] turned out to be 1.1 µmol/kg. Besides, the minimal effective dose in the data set on stereotypy is 68 µmol/kg. In data set [4], the “TI (Test 4), LD/ED quotient” value came to 13 and the ED50 was determined as 51 µmol/kg. In data set [5], the “TI (Test 2), LD/ED quotient” value is recorded as 13 and the ED50 amounted to 53 µmol/kg. The compound also came in with an LD50 at 96 h in [6] of 686 µmol/kg. Moreover, in [7], the “TI (Test 5), LD/ED quotient” value was found to be 49 and the ED50 worked out at 14 µmol/kg. Moreover, in data set [8], the “TI (Test 6), LD/ED quotient” value came out at 62 and the minimal effective dose stood at 11 µmol/kg.

Take `CCCCNC(=O)Nc1cccc2c1CN(C)CC2c1ccc(C)cc1` (centres unmarked) [Compound F, 2-methyl-8-n-butyl-carbamoyl-amino-4-p-tolyl-1,2,3,4-tetrahydro-isoquinoline-maleate]: the “Quotient … of Columns 2 and 4” value in [1] was > 1,7 and 1.7. For the same compound, in the data set with spontaneous motility, the “TI (Test 3), LD/ED quotient” value is reported as more than 60. For the same compound, the minimal effective dose in the data set on spontaneous motility was 43 µmol/kg; in the data set with prolactine level, 107 µmol/kg; in data set [3], more than 11 µmol/kg; in the data set with stereotypy, 178 µmol/kg; in [8], 86 µmol/kg. Moreover, the “TI (Test 4), LD/ED quotient” value in data set [4] is reported as more than 20. In addition, the ED50 in data set [4] is 128 µmol/kg; in data set [5] it was more than 214 µmol/kg; in [7], 32 µmol/kg. Further, the “TI (Test 2), LD/ED quotient” value in data set [5] is more than 12. Further, the LD50 at 96 h in [6] was more than 2570 µmol/kg. In data set [7], the “TI (Test 5), LD/ED quotient” value is reported as more than 80. Besides, the “TI (Test 6), LD/ED quotient” value in data set [8] is more than 30.

For `CCCCNCC(=O)Nc1cccc2c1CN(C)CC2c1ccc(C)cc1` (centres unmarked) [Compound G, 8-butylamino-acetyl-amino-2-methyl-4-p-tolyl-1,2,3,4-tetrahydro-isoquinoline-maleate], the “Quotient … of Columns 2 and 4” value in [1] is reported as 0,4. The “Antidepressant versus antiparkinson profile (in words)” value in data set [1] (from quotient ED2:ED4) is reported as “stronger anti-dopamine, anti-parkinsone activity”. In the data set on spontaneous motility, the “TI (Test 3), LD/ED quotient” value was 66 and the minimal effective dose was determined as 10 µmol/kg. In data set [2], the “Activity compared with Nomifensine (in words)” value is “very high activity” and the “Therapeutical index (in words)” value is “good therapeutical index”. Moreover, in data set [3], the minimal effective dose came out at 2.1 µmol/kg. Moreover, the minimal effective dose in the data set with stereotypy was 108 µmol/kg. Further, in data set [4], the “TI (Test 4), LD/ED quotient” value is 9 and the ED50 was found to be 71 µmol/kg. Besides, in [5], the “TI (Test 2), LD/ED quotient” value is 23 and the ED50 amounted to 29 µmol/kg. In [6], this compound showed an LD50 at 96 h of 664 µmol/kg. In addition, in [7], the “TI (Test 5), LD/ED quotient” value was found to be 133 and the ED50 came to 5 µmol/kg. Moreover, in data set [8], the “TI (Test 6), LD/ED quotient” value was found to be 32 and the minimal effective dose turned out to be 21 µmol/kg.

Consider `CN1Cc2c(N)cccc2C(c2ccccc2)C1` (centres unmarked) [Nomifensine, 8-amino-4-phenyl-2-methyl-1,2,3,4-tetrahydro-isoquinoline, reference compound], for which the “Quotient … of Columns 2 and 4” value in data set [1] is on record as 1,6. The “TI (Test 3), LD/ED quotient” value in the data set on spontaneous motility is 40. Besides, the “Effect on spontaneous motility (in words)” value with spontaneous motility (mice) is recorded as “increases the spontaneous motility”. Moreover, the minimal effective dose was found to be 28 µmol/kg with prolactine level, 1.4 µmol/kg in [3], 23 µmol/kg in the data set with stereotypy and 28 µmol/kg in [8]. In addition, the “TI (Test 4), LD/ED quotient” value in data set [4] is reported as 30. For the same compound, the ED50 in data set [4] worked out at 37 µmol/kg; in data set [5], 56 µmol/kg; in data set [7], 4.2 µmol/kg. The “TI (Test 2), LD/ED quotient” value in data set [5] is on record as 20. For the same compound, the LD50 at 96 h in data set [6] came to 1130 µmol/kg. Also, the “TI (Test 5), LD/ED quotient” value in [7] is reported as 268. The “TI (Test 6), LD/ED quotient” value in data set [8] turned out to be 40.
